Source: patent publication US9303042B2, “Triazolothienopyrimidine compound inhibitors of urea transporters and methods of using inhibitors” (The Regents of the University of California, priority 2012, dated 2016)

What was measured:
UT-A1 = molecular target: T1, UT-A1 (Rattus norvegicus, UniProt Q62668); assay: Transepithelial urea transport in MDCK cells stably expressing UT-A1; format: cell-based; conditions: UTBinh-14 10 μM, forskolin
T1 construct: expressed in transfected cells; host or cells: MDCK cells (MDCK-UT-A1), obtained as described in cited literature
T1 sequence (Q62668 1-929): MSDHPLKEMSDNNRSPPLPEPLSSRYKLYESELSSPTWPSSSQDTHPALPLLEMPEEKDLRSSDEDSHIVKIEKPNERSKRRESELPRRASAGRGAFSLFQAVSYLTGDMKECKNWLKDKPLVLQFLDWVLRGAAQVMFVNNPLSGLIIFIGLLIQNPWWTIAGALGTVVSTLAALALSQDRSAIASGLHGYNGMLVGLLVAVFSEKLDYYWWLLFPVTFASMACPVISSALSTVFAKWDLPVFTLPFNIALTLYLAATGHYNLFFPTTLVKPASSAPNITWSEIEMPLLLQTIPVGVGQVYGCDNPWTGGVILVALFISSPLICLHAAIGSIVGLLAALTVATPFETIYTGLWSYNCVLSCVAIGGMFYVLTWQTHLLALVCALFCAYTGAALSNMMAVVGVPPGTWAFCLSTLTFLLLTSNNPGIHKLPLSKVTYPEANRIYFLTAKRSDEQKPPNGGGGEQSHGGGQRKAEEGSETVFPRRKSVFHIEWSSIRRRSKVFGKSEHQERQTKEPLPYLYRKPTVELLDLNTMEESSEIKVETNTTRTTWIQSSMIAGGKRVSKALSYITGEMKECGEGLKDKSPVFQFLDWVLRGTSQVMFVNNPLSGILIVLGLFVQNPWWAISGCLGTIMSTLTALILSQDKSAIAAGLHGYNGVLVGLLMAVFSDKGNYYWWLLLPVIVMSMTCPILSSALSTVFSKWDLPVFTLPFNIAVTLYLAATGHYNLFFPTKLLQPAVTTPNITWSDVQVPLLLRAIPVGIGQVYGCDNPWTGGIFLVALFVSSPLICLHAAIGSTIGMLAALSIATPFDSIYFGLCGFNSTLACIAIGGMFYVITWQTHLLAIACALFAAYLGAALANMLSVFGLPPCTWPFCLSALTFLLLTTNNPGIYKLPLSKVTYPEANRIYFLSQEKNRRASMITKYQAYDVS
Protocol: (§1) UT-B selectivity and cytotoxicity were studied. Because of sequence similarities between UT-B and UT-A isoforms, UT-A inhibition was measured. Transepithelial urea transport was measured in MDCK cells stably expressing UT-A1, UT-A3, and UT-B. UT-A1 and UT-A3 are cAMP-regulated urea transporters expressed in kidney tubule epithelia (see, e.g., Frohlich et al., Am. J. Physiol. Cell Physiol. 291:C600-606 (2006); Tickle et al., Am. J. Physiol. Regul. Integr. Comp Physiol 0.297: R323-329 (2009); Stewart et al., Am. J. Physiol. Renal Physiol. 292:F1157-63 (2006)). MDCK cells were cultured on collagen-coated porous filters for measurement of urea accumulation in the apical solution following addition of urea to the basolateral solution.
(§2) cDNAs encoding mouse UT-A3 and UT-B were cloned into pcDNA3.1 and used to generate stably transfected MDCK cell lines. MDCK cells stably expressing rat UT-A1 (MDCK-UT-A1) (see, e.g., Frohlich et al., supra) were obtained as described (see, e.g., Levin et al., FASEB J., supra). Cells were cultured in DMEM containing 10% FBS and 0.5 mg/mL G418. […] Urea flux in the basolateral-to-apical direction across unstimulated and forskolin-stimulated cell layers was measured in response to a 15-mM urea gradient. […]

UT-A3 = molecular target: T2, UT-A3 (Mus musculus, UniProt Q8R4T9); assay: Transepithelial urea transport in MDCK cells stably expressing UT-A3; format: cell-based; conditions: UTBinh-14 10 μM, forskolin
T2 construct: expressed in transfected cells
T2 sequence (Q8R4T9 1-461 isoform Q8R4T9-3): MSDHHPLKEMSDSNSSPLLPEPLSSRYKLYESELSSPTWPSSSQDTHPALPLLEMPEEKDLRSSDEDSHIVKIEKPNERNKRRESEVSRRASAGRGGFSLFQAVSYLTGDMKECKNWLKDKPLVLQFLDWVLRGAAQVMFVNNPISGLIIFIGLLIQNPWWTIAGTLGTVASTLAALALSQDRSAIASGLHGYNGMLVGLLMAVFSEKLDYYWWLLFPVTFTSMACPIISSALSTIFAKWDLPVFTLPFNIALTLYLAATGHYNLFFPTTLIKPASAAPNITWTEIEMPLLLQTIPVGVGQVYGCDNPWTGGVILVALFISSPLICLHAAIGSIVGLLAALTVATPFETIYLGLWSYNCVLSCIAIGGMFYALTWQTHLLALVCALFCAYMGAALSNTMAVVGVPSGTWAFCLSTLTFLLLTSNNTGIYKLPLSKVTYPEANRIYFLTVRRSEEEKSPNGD
Protocol: as §1, §2

UT-B = molecular target: T3, UT-B (Mus musculus, UniProt Q8VHL0); assay: Transepithelial urea transport in MDCK cells stably expressing UT-B; format: cell-based; conditions: UTBinh-14 10 μM
T3 sequence (Q8VHL0 1-384): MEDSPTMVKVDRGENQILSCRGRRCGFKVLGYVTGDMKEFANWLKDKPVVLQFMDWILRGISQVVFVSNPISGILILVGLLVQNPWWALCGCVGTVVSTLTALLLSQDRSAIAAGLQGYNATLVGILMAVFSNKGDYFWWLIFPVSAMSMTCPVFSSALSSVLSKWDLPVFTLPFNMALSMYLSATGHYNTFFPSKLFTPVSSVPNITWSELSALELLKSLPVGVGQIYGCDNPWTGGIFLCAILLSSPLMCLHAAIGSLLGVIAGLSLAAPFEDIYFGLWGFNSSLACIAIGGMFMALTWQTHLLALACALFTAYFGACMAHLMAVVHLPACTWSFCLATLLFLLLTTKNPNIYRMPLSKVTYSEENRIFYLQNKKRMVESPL
Protocol: as §1, §2

MDCK cells = assay: MTT cytotoxicity assay; format: cell-based, canine; conditions: up to 10 μM, 24 h

CCc1ccc(S(=O)(=O)c2nnn3c2nc(NCc2cccs2)c2sccc23)cc1 [UTBinh-14, [3-(4-Ethyl-benzenesulfonyl)-thieno[2,3-e][1,2,3]triazolo[1,5-a]pyrimidin-5-yl]-thiophen-2-ylmethylamine]
inhibition of UT-A1 facilitated urea transport (UT-A1): little inhibition | inhibition of UT-A3 facilitated urea transport (UT-A3): little inhibition | inhibition of UT-B facilitated urea transport (UT-B): strongly inhibited | cytotoxicity (MDCK cells): no cytotoxicity
